Experimental data published in ChEMBL document CHEMBL1133171, “Selective plasma hydrolysis of glucocorticoid gamma-lactones and cyclic carbonates by the enzyme paraoxonase: an ideal plasma inactivation mechanism” (J Med Chem, 2000).

Legend:
Glucocorticoid receptor [1] = biological target: T1, Glucocorticoid receptor (Homo sapiens, UniProt P04150); assay: (§1) Inhibition of [3H]dexamethasone binding to human Glucocorticoid Receptor
T1 sequence (P04150 whole entry): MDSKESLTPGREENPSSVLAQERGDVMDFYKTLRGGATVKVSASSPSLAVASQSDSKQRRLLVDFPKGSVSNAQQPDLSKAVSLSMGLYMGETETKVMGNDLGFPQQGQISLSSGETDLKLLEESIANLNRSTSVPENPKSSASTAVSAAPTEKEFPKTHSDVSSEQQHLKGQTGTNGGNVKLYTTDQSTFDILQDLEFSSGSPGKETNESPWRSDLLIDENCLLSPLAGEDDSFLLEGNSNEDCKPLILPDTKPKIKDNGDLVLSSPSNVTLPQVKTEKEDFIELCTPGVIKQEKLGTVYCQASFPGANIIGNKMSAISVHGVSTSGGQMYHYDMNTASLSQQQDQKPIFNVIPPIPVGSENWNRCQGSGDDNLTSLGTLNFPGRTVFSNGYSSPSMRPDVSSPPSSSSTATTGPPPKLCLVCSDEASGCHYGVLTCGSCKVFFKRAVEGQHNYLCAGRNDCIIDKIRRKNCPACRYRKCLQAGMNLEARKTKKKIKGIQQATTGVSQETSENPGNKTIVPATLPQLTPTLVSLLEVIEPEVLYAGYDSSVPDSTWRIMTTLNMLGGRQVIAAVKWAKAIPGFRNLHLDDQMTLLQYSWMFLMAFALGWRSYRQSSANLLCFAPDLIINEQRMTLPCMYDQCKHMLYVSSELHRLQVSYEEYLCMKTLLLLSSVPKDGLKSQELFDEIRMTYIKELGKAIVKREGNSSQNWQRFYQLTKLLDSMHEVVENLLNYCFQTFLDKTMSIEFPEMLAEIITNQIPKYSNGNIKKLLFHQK

Glucocorticoid receptor [2] = biological target: T1, Glucocorticoid receptor; assay: as §1; remark: listed apart in the source

IC50 (Glucocorticoid receptor [1]): 194 nM
IC50 (Glucocorticoid receptor [2]): 827 nM
Structure (SMILES): CC1(C)O[C@@H]2CC3C4C[C@H](F)C5=CC(=O)C=C[C@]5(C)[C@@]4(F)[C@@H](O)C[C@]3(C)[C@]2(C(=O)CSC(CCO)C(=O)O)O1 (some centres not stated)
